Measured values published in patent US20220041606A1, “POSITIVE ALLOSTERIC MODULATORS OF THE MUSCARINIC ACETYLCHOLINE RECEPTOR M1” (Vanderbilt University, priority 2020, published 2022).

Experiments:
human mAChR M1 [1] = molecular target: T1, human mAChR M1 (Homo sapiens, UniProt P11229); experiment: mAChR M1 cell-based functional assay (calcium mobilization), PAM activity: increase in the EC20 acetylcholine response; settings: CHO-K1 cells expressing hM1; potentiation of EC20 acetylcholine response
T1 construct: host or cells: CHO-K1 cells (ATCC), stably transfected using Lipofectamine2000
T1 sequence (P11229 1-460): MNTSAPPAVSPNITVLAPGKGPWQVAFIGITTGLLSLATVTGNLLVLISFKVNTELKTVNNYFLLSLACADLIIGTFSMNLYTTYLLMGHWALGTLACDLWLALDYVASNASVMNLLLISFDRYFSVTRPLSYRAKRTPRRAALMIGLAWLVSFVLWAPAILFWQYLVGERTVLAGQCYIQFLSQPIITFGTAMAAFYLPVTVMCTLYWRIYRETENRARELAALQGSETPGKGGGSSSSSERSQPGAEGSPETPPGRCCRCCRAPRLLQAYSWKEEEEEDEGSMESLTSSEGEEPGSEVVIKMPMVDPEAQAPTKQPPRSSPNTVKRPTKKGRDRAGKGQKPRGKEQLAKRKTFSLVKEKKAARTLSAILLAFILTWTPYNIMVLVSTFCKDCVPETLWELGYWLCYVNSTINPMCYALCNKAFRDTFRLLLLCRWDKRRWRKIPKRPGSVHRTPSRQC
Summary of the method: (§1)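 CHO-K1 cells stably expressing hM1, loaded with Fluo-4 AM; calcium flux read on FDSS 6000. Compound (11-point, 1:3 CRC) added at 4 s, EC20 acetylcholine at 144 s, EC80 at 230 s; agonism from response to compound alone, PAM from increase in EC20 response; Emax relative to acetylcholine maximum, four-parameter fit.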

human mAChR M1 [2] = molecular target: T1, human mAChR M1; experiment: mAChR M1 cell-based functional assay (calcium mobilization), agonist activity upon compound addition; settings: CHO-K1 cells expressing hM1; for EC50: compound alone, before acetylcholine addition; for Emax: relative to the maximum for acetylcholine
Summary of the method: as §1

Compound | EC50 (human mAChR M1 [1]) [µM] | Emax (human mAChR M1 [1]) [%] | EC50 (human mAChR M1 [2]) [µM] | Emax (human mAChR M1 [2]) [%]
Cn1cc(-c2ccc(Cn3cc(C(=O)N[C@H]4CCC[C@@H]4O)c4ncccc4c3=O)cn2)cn1 [Compound A17, N-((1S,2S)-2-hydroxycyclopentyl)-6-((6-(1-methyl-1H-pyrazol-4-yl)pyridin-3-yl)methyl)-5-oxo-5,6-dihydro-1,6-naphthyridine-8-carboxamide] | ≥ 10 | 55 | > 10 | < 5
Cn1cc2c(-c3cc(F)c(Cn4cc(C(=O)N[C@@H]5CC[C@H]5O)c5occc5c4=O)c(F)c3)cccc2n1 (stereo in doubt) [Compound D21, 5-(2,6-difluoro-4-(2-methyl-2H-indazol-4-yl)benzyl)-N-((1R,2R)-2-hydroxycyclobutyl)-4-oxo-4,5-dihydrofuro[3,2-c]pyridine-7-carboxamide] | 2.19 | 75 | > 10 | < 5
Cn1ccc(-c2ccc(Cn3cc(C(=O)N[C@H]4CCOC[C@@H]4O)c4sccc4c3=O)c(F)c2)n1 [Compound D26, 5-(2-fluoro-4-(1-methyl-1H-pyrazol-3-yl)benzyl)-N-((3R,4S)-3-hydroxytetrahydro-2H-pyran-4-yl)-4-oxo-4,5-dihydrothieno[3,2-c]pyridine-7-carboxamide] | > 10 | 34 | > 10 | < 5
Cn1cc(-c2ccc(Cn3cc(C(=O)N[C@H]4CCCCC[C@@H]4O)c4ncncc4c3=O)c(F)c2)cn1 [Compound A91, 6-(2-fluoro-4-(1-methyl-1H-pyrazol-4-yl)benzyl)-N-((1S,2S)-2-hydroxycycloheptyl)-5-oxo-5,6-dihydropyrido[4,3-d]pyrimidine-8-carboxamide] | ≥ 10 | 34 | > 10 | < 5
Cn1cc(-c2ccc(Cn3cc(C(=O)N[C@@H]4CC[C@H]4O)c4ncccc4c3=O)c(F)c2)cn1 [Compound A9, 6-(2-fluoro-4-(1-methyl-1H-pyrazol-4-yl)benzyl)-N-((1R,2R)-2-hydroxycyclobutyl)-5-oxo-5,6-dihydro-1,6-naphthyridine-8-carboxamide] | 5.87 | 65 | > 10 | < 5
Cn1ccc(-c2ccc(Cn3cc(C(=O)N[C@@H]4CC[C@H]4O)c4nccn4c3=O)c(F)c2)n1 [Compound B4, 6-(2-fluoro-4-(1-methyl-1H-pyrazol-3-yl)benzyl)-N-((1R,2R)-2-hydroxycyclobutyl)-5-oxo-5,6-dihydroimidazo[1,2-c]pyrimidine-8-carboxamide] | 3.22 | 52 | > 10 | < 5
Cn1cc2c(-c3cc(F)c(Cn4cc(C(=O)NC5CC6(COC6)C5)c5occc5c4=O)c(F)c3)cccc2n1 [Compound D24, 5-(2,6-difluoro-4-(2-methyl-2H-indazol-4-yl)benzyl)-4-oxo-N-(2-oxaspiro[3.3]heptan-6-yl)-4,5-dihydrofuro[3,2-c]pyridine-7-carboxamide] | 2.48 | 70 | > 10 | < 5
CC(C)[C@@H](CO)NC(=O)c1cn(Cc2ccc(-c3cnn(C)c3)cc2F)c(=O)c2nccnc12 [Compound A82, (S)-6-(2-fluoro-4-(1-methyl-1H-pyrazol-4-yl)benzyl)-N-(1-hydroxy-3-methylbutan-2-yl)-5-oxo-5,6-dihydropyrido[3,4-b]pyrazine-8-carboxamide] | ≥ 10 | 26 | > 10 | < 5
Cn1ccc(-c2ccc(Cn3cc(C(=O)N[C@H]4CCOC[C@@H]4O)c4occc4c3=O)c(F)c2)n1 [Compound D6, 5-(2-fluoro-4-(1-methyl-1H-pyrazol-3-yl)benzyl)-N-((3R,4S)-3-hydroxytetrahydro-2H-pyran-4-yl)-4-oxo-4,5-dihydrofuro[3,2-c]pyridine-7-carboxamide] | > 10 | 68 | > 10 | < 5
O=C(N[C@H]1CCCC[C@@H]1O)c1cn(Cc2ccc(-n3cccn3)cc2)c(=O)c2nccnc12 [Compound A53, 6-(4-(1H-pyrazol-1-yl)benzyl)-N-((1S,2S)-2-hydroxycyclohexyl)-5-oxo-5,6-dihydropyrido[3,4-b]pyrazine-8-carboxamide] | 9.64 | 48 | > 10 | < 5
Cn1cc(-c2ccc(Cn3cc(C(=O)NC4CC5(COC5)C4)c4ncccc4c3=O)c(F)c2)cn1 [Compound A11, 6-(2-fluoro-4-(1-methyl-1H-pyrazol-4-yl)benzyl)-5-oxo-N-(2-oxaspiro[3.3]heptan-6-yl)-5,6-dihydro-1,6-naphthyridine-8-carboxamide] | 6.75 | 58 | > 10 | < 5

The next molecules have a lower EC50 (human mAChR M1 [1]) than those just listed; values first:

EC50 (human mAChR M1 [1]) [µM] | Emax (human mAChR M1 [1]) [%] | EC50 (human mAChR M1 [2]) [µM] | Emax (human mAChR M1 [2]) [%] | Compound
0.4 | 64 | 4.36 | 50 | Cn1cc2c(-c3cc(F)c(Cn4cc(C(=O)N[C@H]5CCCC[C@@H]5O)c5nccnc5c4=O)c(F)c3)cccc2n1 [Compound A52, 6-(2,6-Difluoro-4-(2-methyl-2H-indazol-4-yl)benzyl)-N-((1S,2S)-2-hydroxycyclohexyl)-5-oxo-5,6-dihydropyrido[3,4-b]pyrazine-8-carboxamide]
0.21 | 63 | 5 | 45 | Cn1cc(-c2ccc(Cn3cc(C(=O)N[C@H]4CCCC[C@@H]4O)c4nccn4c3=O)cn2)cn1 [Compound B11, N-((1S,2S)-2-hydroxycyclohexyl)-6-((6-(1-methyl-1H-pyrazol-4-yl)pyridin-3-yl)methyl)-5-oxo-5,6-dihydroimidazo[1,2-c]pyrimidine-8-carboxamide]
1.25 | 78 | > 10 | < 5 | Cn1nccc1-c1cc(F)c(Cn2cc(C(=O)N[C@H]3CCOC[C@@H]3O)c3nccn3c2=O)c(F)c1 [Compound B36, 6-(2,6-difluoro-4-(1-methyl-1H-pyrazol-5-yl)benzyl)-N-((3R,4S)-3-hydroxytetrahydro-2H-pyran-4-yl)-5-oxo-5,6-dihydroimidazo[1,2-c]pyrimidine-8-carboxamide]
0.31 | 60 | > 10 | < 5 | Cn1ccc(-c2ccc(Cn3cc(C(=O)N[C@H]4CCCCC[C@@H]4O)c4ncn(C)c4c3=O)c(F)c2)n1 [Compound C3, 5-(2-fluoro-4-(1-methyl-1H-pyrazol-3-yl)benzyl)-N-((1S,2S)-2-hydroxycycloheptyl)-3-methyl-4-oxo-4,5-dihydro-3H-imidazo[4,5-c]pyridine-7-carboxamide]
0.1 | 70 | 3.17 | 55 | O=C(N[C@H]1CCCC[C@@H]1O)c1cn(Cc2ccc(-n3cccn3)cc2)c(=O)n2ccnc12 [Compound B13, 6-(4-(1H-pyrazol-1-yl)benzyl)-N-((1S,2S)-2-hydroxycyclohexyl)-5-oxo-5,6-dihydroimidazo[1,2-c]pyrimidine-8-carboxamide]
0.47 | 42 | 5.24 | 51 | Cn1cc2c(-c3cc(F)c(Cn4cc(C(=O)N[C@H]5CCCCC[C@@H]5O)c5nccn5c4=O)c(F)c3)cccc2n1 [Compound B19, 6-(2,6-difluoro-4-(2-methyl-2H-indazol-4-yl)benzyl)-N-((1S,2S)-2-hydroxycycloheptyl)-5-oxo-5,6-dihydroimidazo[1,2-c]pyrimidine-8-carboxamide]
